# Patent publication US5556849A, “Ruthenium containing phthalocyanin photosensitizers” (priority 1991, dated 1996)
# Assays:
# [1] = Light absorption maxima and molar extinction coefficients; assay type: physicochemical; settings: for λmax Q: in water (W)
# Method: (§1) Compounds according to the invention were assessed and characterised by their light absorption maxima, and their molar extinction coefficients according to conventional test procedures. Most of the compound were tested for their biological activity according to conventional test procedures in the art. The PC50 represents phototoxic concentration 50%. which is the concentration of compound when exposed to a light dose as described herein, causes a 50% reduction in cancer cell growth vs an untreated control population. The phototoxicity index. PI, is the ratio of the PC50 to the cytotoxic concentration 50%. where the growth is reduced by 50% without a light dose being given.
# [2] = system: Adherent cells (HeLa RCA. SKOV OVCAR); assay: Phototoxicity (Light): 3H-thymidine incorporation in adherent cells after irradiation, with dark cytotoxicity for PI; assay type: cell-based; settings: for PC50 (phototoxic concentration 50%) / IC50: with light dose, 50% reduction in cancer cell growth vs untreated control, 24 h incubation with sensitizer; for PI (phototoxicity index): ratio of PC50 to cytotoxic concentration 50% (no light); for IC50: read-out: PC50 (phototoxic concentration 50%)
# Method: The media is removed and the cells washed three times with D-PBS. and then covered with D-PBS (200 μl ) and exposed to light from the same source used in the singlet oxygen assay.
# This follows the procedure for phototoxicity except that the cells are never exposed to light. The assay is relative to a non-treated control.
# as §1
# PC50 is determined by a relatively simple in vitro assay on a cellular level, which is generally indicative of photosensitizing activity.
SMILES,ε (molar extinction coefficient) [1],PC50 (phototoxic concentration 50%) [2],λmax Q [1],PI (phototoxicity index) [2],IC50 [2]
Fc1c(F)c(F)c2c(c1F)C1=NC2=Nc2c3c(F)c(F)c(F)c(F)c3c3[n]2[Ru][n]2c(c4c(F)c(F)c(F)c(F)c4c2=NC2=NC(=N3)c3c(F)c(F)c(F)c(F)c32)=N1.O=C(O)c1cccnc1.O=C(O)c1cccnc1 [RuF16 Pc(Nic)2],55700 M⁻¹ cm⁻¹,Inactive,,,
O=S(=O)([O-])c1cccc(P(c2cccc(S(=O)(=O)[O-])c2)c2cccc(S(=O)(=O)[O-])c2)c1.O=S(=O)([O-])c1cccc(P(c2cccc(S(=O)(=O)[O-])c2)c2cccc(S(=O)(=O)[O-])c2)c1.[Na+].[Na+].[Na+].[Na+].[Na+].[Na+].c1ccc2c(c1)C1=NC3=NC(=Nc4c5ccccc5c5[n]4[Ru][n]4c(c6ccccc6c4=N5)=NC2=N1)c1ccccc13 [RuPc(TPPTS)2],87400 M⁻¹ cm⁻¹,,650,> 15,11300 nM
NCCC(=O)[O-].NCCC(=O)[O-].[K+].[K+].c1ccc2cc3c(cc2c1)C1=NC2=NC(=Nc4c5cc6ccccc6cc5c5[n]4[Ru][n]4c(c6cc7ccccc7cc6c4=N5)=NC3=N1)c1cc3ccccc3cc12 [RuNc(β-ALA)2],36500 M⁻¹ cm⁻¹,,730,1.51,960 nM
N#Cc1cccc(C(=O)O)c1.N#Cc1cccc(C(=O)O)c1.c1ccc2c(c1)C1=NC3=NC(=Nc4c5ccccc5c5[n]4[Ru][n]4c(c6ccccc6c4=N5)=NC2=N1)c1ccccc13 [RuPc(CBA)2],97600 M⁻¹ cm⁻¹,,650,10.2,420 nM
O=S(=O)([O-])c1cccnc1.O=S(=O)([O-])c1cccnc1.[Na+].[Na+].c1ccc2c(c1)C1=NC2=Nc2c3ccccc3c3[n]2[Ru][n]2c(c4ccccc4c2=NC2=NC(=N3)c3ccccc32)=N1 [RuPc(3PS)2],736000 M⁻¹ cm⁻¹,,630,> 109,929 nM
O=C(O)c1cccnc1.O=C(O)c1cccnc1.c1ccc2c(c1)C1=NC2=Nc2c3ccccc3c3[n]2[Ru][n]2c(c4ccccc4c2=NC2=NC(=N3)c3ccccc32)=N1 [RuPc(Nic)2],648000 M⁻¹ cm⁻¹,,630,> 79,1260 nM
O=S(=O)(O)c1ccc[n+]([Ru-2]2([n+]3cccc(S(=O)(=O)O)c3)[n]3c4c5cc6ccccc6cc5c3N=C3N=C(N=c5c6cc7ccccc7cc6c([n]52)=NC2=NC(=N4)c4cc5ccccc5cc42)c2cc4ccccc4cc23)c1.[Na+].[Na+] [RuNc(3PS)2],,,,,460 nM
Cc1cc2c(cc1C)C1=Nc3c4cc(C)c(C)cc4c4[n]3[Ru][n]3c(c5cc(C)c(C)cc5c3=NC3=NC(=N4)c4cc(C)c(C)cc43)=NC2=N1.O=C(O)c1cncc(C(=O)O)c1.O=C(O)c1cncc(C(=O)O)c1 [Ru(oMe)8 Pc(35PDCA2)],63300 M⁻¹ cm⁻¹,Inactive,641,1,
O=S(=O)([O-])c1cccc(P(c2ccccc2)c2ccccc2)c1.O=S(=O)([O-])c1cccc(P(c2ccccc2)c2ccccc2)c1.[K+].[K+].c1ccc2c(c1)C1=NC3=NC(=Nc4c5ccccc5c5[n]4[Ru][n]4c(c6ccccc6c4=N5)=NC2=N1)c1ccccc13 [RuPc(TPPMS)2],90300 M⁻¹ cm⁻¹,,652,,
O=C([O-])c1cccc(P(c2ccccc2)c2ccccc2)c1.[Na+].c1ccc2c(c1)C1=NC2=Nc2c3ccccc3c3[n]2[Ru][n]2c(c4ccccc4c2=NC2=NC(=N3)c3ccccc32)=N1.c1ccncc1 [RuPc(py)(TPPMC)],54600 M⁻¹ cm⁻¹,,644,,
